Experimental data: patent US20030118649A1, “Drug delivery devices and methods” (priority 2001, published 2003)

How the values were obtained:
[1] = test system: VX-2 cells; conditions: Ridge et al. 1988; cited from earlier work
[2] = Structural integrity of doxorubicin after millirod fabrication (NMR); type: physicochemical; conditions: compression-heat molding, 90° C., 2 hours
Experimental: These devices are prepared as a monolithic system using a compression-heat-molding procedure that has been developed. (Qian, F., Szymanski, A. and Gao, J. (2001) J. Biomed. Mater. Res. 55, 512-522.) Briefly, doxorubicin solution (2 mg/mL, also containing 0.9% NaCl) from Bedford Laboratories is first dialyzed in distilled water to remove the NaCl. […] The well-mixed particles are placed in a Teflon tube and molded into a polymer millirod at a compression pressure of 4.6×10^6 Pa and a fabrication temperature at 90° C. for 2 hours.
Determination of the structural integrity of released doxorubicin. Released doxorubicin in PBS is desalted by gel filtration column chromatography (G-10 column, Pharmacia). Samples are lyophilized and characterized by ^1H and ^13C nuclear magnetic resonance (NMR) and mass spectrometry to examine their structural integrity. In NMR analysis, lyophilized agents are dissolved in deuterated methanol and spectrum will be obtained on a 300 MHz ^1H NMR instrument (Bruker). The chemical shifts of the released agents are compared to the pure compound to detect possible structural decomposition.

[3] = Fluorescence imaging of doxorubicin distribution in rabbit livers after millirod implantation; conditions: in vivo
Experimental: In accordance with the present invention, we developed a fluorescence imaging method to analyze doxorubicin distribution in rabbit liver tissues. First, we determined the calibration curve to correlate fluorescence intensity with doxorubicin concentration in liver tissues. Second, we estimated the sensitivity limit (0.6 μg/g of liver tissue) for doxorubicin detection by this method. This value is well below the cytotoxic concentrations of doxorubicin to VX-2 cells (˜6.4 μg/g). (Ridge, J. A., Collin, C., Bading, J. R., Hancock, C., Conti, P. S., Daly, J. M. and Raaf, J. H. (1988) Cancer Res 48(16), 4584-7. Third, we used this method to quantify the dynamics of drug distribution in ablated and non-ablated rabbit livers over time. The detailed experimental procedure of the fluorescence imaging method is described below.
FIG. 14 compares the 2D doxorubicin distribution profiles between non-ablated and thermoablated liver tissues. In this set of experiments, a monolithic millirod with burst release kinetics (millirod (a) in FIG. 2) was implanted in either non-ablated or thermoablated livers. […] White dashed lines in the figures represent the ablated-normal tissue boundary, which was obtained by comparing the fluorescence image with an optical image of histology slides where this boundary is well-defined (see next section).

Question: For `COc1cccc2c1C(=O)c1c(O)c3c(c(O)c1C2=O)C[C@@](O)(C(=O)CO)C[C@@H]3O[C@H]1C[C@H](N)[C@H](O)[C@H](C)O1` [doxorubicin], which “cytotoxic concentration of doxorubicin” value [1] is on record?
Answer: ~6.4 µg/g

Question: What about the “structure of doxorubicin after fabrication” value [2] of the same compound?
Answer: remained intact

Question: And the concentration at 24 h [3]?
Answer: 50000 ng/g
